{
  "source": "paper PMC5936891",
  "about": "“A focused library synthesis and cytotoxicity of quinones derived from the natural product bolinaquinone” (Royal Society Open Science, 2018)",
  "origin": "cited, not measured here",
  "conditions_in_all_cases": "cited from earlier work",
  "key": {"[1]": {"test_system": "HCT-116 colon carcinoma cells"}, "HeLa": {"test_system": "HeLa", "parameters": "method as in PMID 19995673, PMID 3839712"}, "[2]": {"test_system": "L5178Y mouse lymphoma cells", "parameters": "method as in PMID 19995673, PMID 3839712"}, "HT-29 colorectal": {"test_system": "HT-29 colorectal", "parameters": "method as in ref 21 = [21]; 21 Rodríguez J , Quiñoá E , Riguera R , Peters BM , Abrell LM , Crews P 1992 The structures and stereochemistry of cytotoxic sesquiterpene quinones from Dactylospongia elegans . Tetrahedron 48 , 6667"}, "P-388 leukaemia cells": {"test_system": "P-388 leukaemia cells", "parameters": "method as in ref 21 = [21]; 21 Rodríguez J , Quiñoá E , Riguera R , Peters BM , Abrell LM , Crews P 1992 The structures and stereochemistry of cytotoxic sesquiterpene quinones from Dactylospongia elegans . Tetrahedron 48 , 6667"}, "melanoma B16/F10": {"test_system": "melanoma B16/F10", "parameters": "method as in ref 21 = [21]; 21 Rodríguez J , Quiñoá E , Riguera R , Peters BM , Abrell LM , Crews P 1992 The structures and stereochemistry of cytotoxic sesquiterpene quinones from Dactylospongia elegans . Tetrahedron 48 , 6667"}, "A-549 lung": {"test_system": "A-549 lung", "parameters": "method as in ref 21 = [21]; 21 Rodríguez J , Quiñoá E , Riguera R , Peters BM , Abrell LM , Crews P 1992 The structures and stereochemistry of cytotoxic sesquiterpene quinones from Dactylospongia elegans . Tetrahedron 48 , 6667"}},
  "note": "Where two headings read alike, the source gives them in different places.",
  "data": [
    {"compound": "COC1=CC(=O)C(O)=C(C[C@@]2(C)CC[C@]3(C)C(C)=CCC[C@H]3[C@H]2C)C1=O", "note": "[compound 1, bolinaquinone]", "values": [
      {"measurement": "GI50", "setting": "[1]; 50% growth inhibition", "value": 5.3, "unit": "µM"}
    ]},
    {"compound": "CC1=CCC[C@H]2[C@](C)(CC3=CC(=O)C=CC3=O)[C@@H](C)CC[C@]12C", "note": "[compound 2, avarone]", "values": [
      {"measurement": "GI50", "setting": "HeLa", "value": "26.8 ± 3", "unit": "µM"},
      {"measurement": "ED50 L5178Y mouse lymphoma cells", "setting": "[2]", "value": "0.62 ± 0.11", "unit": "µM"}
    ]},
    {"compound": "COC1=CC(=O)C(O)=C(C[C@@]2(C)[C@H](C)[C@@H]3CCCC(C)(C)C3=C[C@@H]2C)C1=O", "note": "[compound 3, mamanuthaquinone]", "values": [
      {"measurement": "GI50", "setting": "[1]", "value": 5.58, "unit": "µM"}
    ]},
    {"compound": "C=C1CCC[C@H]2[C@](C)(CC3=C(O)C(=O)C=C(OC)C3=O)[C@@H](C)CC[C@]12C", "note": "[compound 4, epi-ilimaquinone]", "values": [
      {"measurement": "GI50", "setting": "HT-29 colorectal", "value": 9.48, "unit": "µM"},
      {"measurement": "GI50", "setting": "P-388 leukaemia cells", "value": 6.14, "unit": "µM"},
      {"measurement": "GI50", "setting": "melanoma B16/F10", "value": 3.1, "unit": "µM"},
      {"measurement": "GI50", "setting": "A-549 lung", "value": 2.51, "unit": "µM"}
    ]}
  ]
}
